Measured values published in US10273233B2, “Inhibitors of influenza viruses replication” (Vertex Pharmaceuticals Incorporated, priority 2015, dated 2019).
Like-named read-outs stand apart in the source and are kept apart here.

How the values were obtained:
A/WS/33 = assay: 3-day CP assay in MDCK cells; format: cell-based; conditions: Influenza A virus
A/NWS/33 = assay: 3-day CP assay in MDCK cells; format: cell-based, influenza A; conditions: Influenza A virus, MDCK
A/Puerto Rico/8/34 = assay: 3-day CP assay in MDCK cells; format: cell-based; conditions: Influenza A virus
A/Weiss/43 = assay: 3-day CP assay in MDCK cells; format: cell-based; conditions: Influenza A virus
A/FM/1/47 = assay: 3-day CP assay in MDCK cells; format: cell-based; conditions: Influenza A virus
A/Mal/302/54 = assay: 3-day CP assay in MDCK cells; format: cell-based; conditions: Influenza A virus
A/Denver/1/57 = assay: 3-day CP assay in MDCK cells; format: cell-based; conditions: Influenza A virus
A/Aichi/2/68 = assay: 3-day CP assay in MDCK cells; format: cell-based; conditions: Influenza A virus
A/Hong Kong/8/68 = assay: 3-day CP assay in MDCK cells; format: cell-based; conditions: Influenza A virus
A/Port Chalmers/1/73 = assay: 3-day CP assay in MDCK cells; format: cell-based; conditions: Influenza A virus
A/Victoria/3/75 = assay: 3-day CP assay in MDCK cells; format: cell-based; conditions: Influenza A virus
A/New Jersey/8/76 = assay: microbe, parasite or virus in culture; format: cell-based; conditions: Influenza A virus, MDCK
A/Wisconsin/67/2005 = assay: 3-day CP assay in MDCK cells; format: cell-based; conditions: Influenza A virus
A/Chelyabinsk/1/200 = assay: 3-day CP assay in MDCK cells; format: cell-based; conditions: Influenza A virus
A/Fukushima/141/2006 = assay: 3-day CP assay in MDCK cells; format: cell-based; conditions: Influenza A virus
A/Georgia/17/2006 = assay: 3-day CP assay in MDCK cells; format: cell-based; conditions: Influenza A virus
A/Georgia/20/2006 = assay: 3-day CP assay in MDCK cells; format: cell-based, influenza A; conditions: Influenza A virus, MDCK
A/Hawaii/2/2006 = assay: 3-day CP assay in MDCK cells; format: cell-based; conditions: Influenza A virus
A/Missouri/3/2006 = assay: 3-day CP assay in MDCK cells; format: cell-based; conditions: Influenza A virus
A/Nebraska/1/2006 = assay: 3-day CP assay in MDCK cells; format: cell-based; conditions: Influenza A virus
A/Santiago/7981/2006 = assay: 3-day CP assay in MDCK cells; format: cell-based; conditions: Influenza A virus
A/St. Petersburg8/2006 = assay: 3-day CP assay in MDCK cells; format: cell-based; conditions: Influenza A virus
A/Virginia/01/2006 = assay: 3-day CP assay in MDCK cells; format: cell-based; conditions: Influenza A virus
A/Cambodia0371/2007 = assay: 3-day CP assay in MDCK cells; format: cell-based; conditions: Influenza A virus
A/Henan/Jinshui/147/2007 = assay: 3-day CP assay in MDCK cells; format: cell-based; conditions: Influenza A virus
A/South Dakota/6/2007 = assay: 3-day CP assay in MDCK cells; format: cell-based; conditions: Influenza A virus
A/Texas/12/2007 = assay: 3-day CP assay in MDCK cells; format: cell-based; conditions: Influenza A virus
A/Uruguay/716/2007 = assay: 3-day CP assay in MDCK cells; format: cell-based; conditions: Influenza A virus
A/California/07/2009 = assay: 3-day CP assay in MDCK cells; format: cell-based; conditions: Influenza A virus, MDCK; A/California/07/2009
[1] = system: A/California/07/2009 NYMC, X-179A; assay: 3-day CP assay in MDCK cells; format: cell-based; conditions: Influenza A virus
A/Mexico/4108/2009 = assay: 3-day CP assay in MDCK cells; format: cell-based; conditions: Influenza A virus
A/New York/18/2009 = assay: 3-day CP assay in MDCK cells; format: cell-based; conditions: Influenza A virus
A/Texas/48/2009 = assay: 3-day CP assay in MDCK cells; format: cell-based; conditions: Influenza A virus
A/Virginia/ATCC2/2009 = assay: 3-day CP assay in MDCK cells; format: cell-based; conditions: Influenza A virus
A/Virginia/ATCC3/2009 = assay: 3-day CP assay in MDCK cells; format: cell-based; conditions: Influenza A virus
A/Swine/Iowa/15/30 = assay: microbe, parasite or virus in culture; format: cell-based, influenza A; conditions: Influenza A virus, MDCK, in Sus scrofa
A/Swine/1976/31 = assay: microbe, parasite or virus in culture; format: cell-based; conditions: Influenza A virus, MDCK, in Sus scrofa
A/Equine/Miami/63 = assay: microbe, parasite or virus in culture; format: cell-based; conditions: Influenza A virus, MDCK
B/Lee/40 = assay: 3-day CP assay in MDCK cells; format: cell-based; conditions: Influenza B virus
B/Russia/69 = assay: 3-day CP assay in MDCK cells; format: cell-based; conditions: Influenza B virus
B/Memphis/20/1996--070 = assay: 3-day CP assay in MDCK cells; format: cell-based; conditions: Influenza B virus
physchem [2] = conditions: thermodynamic from solid
physchem [3] = conditions: thermodynamic from solid; remark: listed apart in the source

For NC12CC3CC(CC(C3)C1)C2 [Amantadine, amantadine], the EC50 (A/WS/33) was > 10 µM, the EC50 (A/NWS/33) was > 10 µM and the EC50 (A/Puerto Rico/8/34) was > 10 µM. The EC50 (A/Weiss/43) was > 10 µM, the EC50 (A/FM/1/47) was 0.66 µM and the EC50 (A/Mal/302/54) was 2.1 µM. For the same molecule, the EC50 (A/Denver/1/57) was 0.31 µM, the EC50 (A/Aichi/2/68) was 6.6 µM and the EC50 (A/Hong Kong/8/68) was 3.7 µM. The EC50 (A/Port Chalmers/1/73) was > 10 µM, the EC50 (A/Victoria/3/75) was 8.6 µM and the EC50 (A/New Jersey/8/76) was 0.82 µM. For the same molecule, the EC50 (A/Wisconsin/67/2005) was > 10 µM, the EC50 (A/Chelyabinsk/1/200) was > 10 µM and the EC50 (A/Fukushima/141/2006) was 0.46 µM. For the same molecule, the EC50 (A/Georgia/17/2006) was 0.25 µM, the EC50 (A/Georgia/20/2006) was > 10 µM and the EC50 (A/Hawaii/2/2006) was 9.2 µM. The EC50 (A/Missouri/3/2006) was 6 µM, the EC50 (A/Nebraska/1/2006) was > 10 µM and the EC50 (A/Santiago/7981/2006) was > 10 µM. The EC50 (A/St. Petersburg8/2006) was > 10 µM, the EC50 (A/Virginia/01/2006) was > 10 µM and the EC50 (A/Cambodia0371/2007) was > 10 µM. For the same molecule, the EC50 (A/Henan/Jinshui/147/2007) was > 10 µM, the EC50 (A/South Dakota/6/2007) was 0.14 µM and the EC50 (A/Texas/12/2007) was > 10 µM. The EC50 (A/Uruguay/716/2007) was > 10 µM, the EC50 (A/California/07/2009) was > 10 µM and the EC50 [1] was > 10 µM. The EC50 (A/Mexico/4108/2009) was > 10 µM, the EC50 (A/New York/18/2009) was > 10 µM and the EC50 (A/Texas/48/2009) was > 10 µM. The EC50 (A/Virginia/ATCC2/2009) was > 10 µM, the EC50 (A/Virginia/ATCC3/2009) was > 10 µM and the EC50 (A/Swine/Iowa/15/30) was 0.22 µM. The EC50 (A/Swine/1976/31) was 0.078 µM, the EC50 (A/Equine/Miami/63) was 1.75 µM and the EC50 (B/Lee/40) was > 10 µM. For the same molecule, the EC50 (B/Russia/69) was > 10 µM and the EC50 (B/Memphis/20/1996--070) was > 10 µM.
With CC(C)(C)[C@@H](CC(=O)O)Nc1nc(-c2c[nH]c3ncc(F)cc23)ncc1F [Hydrate 1 of Compound (1)] the “USP Definition” value (pH 0.84) was “Slightly Soluble”, the “USP Definition” value (pH 1.59) was “Slightly Soluble” and the “Final Form” value (pH 2.84) was “Hydrate 3”. The “USP Definition” value (pH 2.84) was “Practically Insoluble”, the “Final Form” value (pH 4.22) was “Hydrate 3” and the “USP Definition” value (pH 4.22) was “Practically Insoluble”. The “Final Form” value (pH 5.17) was “Hydrate 3”, the “USP Definition” value (pH 5.17) was “Practically Insoluble” and the “Final Form” value (pH 5.96) was “Hydrate 3”. For the same molecule, the “USP Definition” value (pH 5.96) was “Practically Insoluble”, the “Final Form” value (pH 6.38) was “Hydrate 3” and the “USP Definition” value (pH 6.38) was “Very Slightly Soluble”. For the same molecule, the “Final Form” value (pH 6.71) was “Hydrate 3”, the “USP Definition” value (pH 6.71) was “Very Slightly Soluble” and the “Final Form” value (pH 7.07) was “Hydrate 3”. For the same molecule, the “USP Definition” value (pH 7.07) was “Very Slightly Soluble”, the “Final Form” value (pH 7.73) was “Hydrate 3” and the “USP Definition” value (pH 7.73) was “Slightly Soluble”. The “Final Form” value (pH 8.13) was “Hydrate 3”, the “USP Definition” value (pH 8.13) was “Slightly Soluble” and the “Final Form” value (pH 8.4) was “Hydrate 3”. The “USP Definition” value (pH 8.4) was “Slightly Soluble”, the solubility at 2 weeks (physchem [2]; pH 0.84, saline or isotonic) was 2150 µg/mL and the solubility at 2 weeks (physchem [2]; pH 1.59, saline or isotonic) was 1150 µg/mL. It also gave a solubility at 2 weeks (physchem [2]; pH 2.84, saline or isotonic) of 57 µg/mL, a solubility at 2 weeks (physchem [2]; pH 4.22, saline or isotonic) of 4 µg/mL and a solubility at 2 weeks (physchem [2]; pH 5.17, saline or isotonic) of 21 µg/mL. The solubility at 2 weeks (physchem [2]; pH 5.96, saline or isotonic) was 78 µg/mL, the solubility at 2 weeks (physchem [2]; pH 6.38, saline or isotonic) was 216 µg/mL and the solubility at 2 weeks (physchem [2]; pH 6.71, saline or isotonic) was 420 µg/mL. The solubility at 2 weeks (physchem [2]; pH 7.07, saline or isotonic) was 335 µg/mL, the solubility at 2 weeks (physchem [2]; pH 7.73, saline or isotonic) was 2240 µg/mL and the solubility at 2 weeks (physchem [2]; pH 8.13, saline or isotonic) was 4830 µg/mL. It also gave a solubility at 2 weeks (physchem [2]; pH 8.4, saline or isotonic) of 4360 µg/mL, a solubility at 5 days (physchem [3]; pH 1.55, fassgf or other biorelevant) of 2660 µg/mL and a solubility at 5 days (physchem [3]; pH 3.56, aqueous with cosolvent or surfactant or cyclodextrin) of 285 µg/mL. It also gave a solubility at 5 days (physchem [3]; pH 3.96, aqueous with cosolvent or surfactant or cyclodextrin) of 135 µg/mL, a solubility at 5 days (physchem [3]; pH 4.15, aqueous with cosolvent or surfactant or cyclodextrin) of 1150 µg/mL and a solubility at 5 days (physchem [3]; pH 4.17, aqueous with cosolvent or surfactant or cyclodextrin) of 1640 µg/mL. For the same molecule, the solubility at 5 days (physchem [3]; pH 4.18, saline or isotonic) was 108 µg/mL, the solubility at 5 days (physchem [3]; pH 4.79, aqueous with cosolvent or surfactant or cyclodextrin) was 89 µg/mL and the solubility at 5 days (physchem [3]; pH 4.84, saline or isotonic) was 94 µg/mL. It also gave a solubility at 5 days (physchem [3]; pH 4.93, aqueous with cosolvent or surfactant or cyclodextrin) of 108 µg/mL, a solubility at 5 days (physchem [3]; pH 5.03, water) of 98 µg/mL and a solubility at 5 days (physchem [3]; pH 5.04, aqueous with cosolvent or surfactant or cyclodextrin) of 512 µg/mL. It also gave a solubility at 5 days (physchem [3]; pH 5.08, aqueous with cosolvent or surfactant or cyclodextrin) of 606 µg/mL, a solubility at 5 days (physchem [3]; pH 5.11, fessif) of 60 µg/mL and a solubility at 5 days (physchem [3]; pH 5.13, aqueous with cosolvent or surfactant or cyclodextrin) of 354 µg/mL. For the same molecule, the solubility at 5 days (physchem [3]; pH 5.22, aqueous with cosolvent or surfactant or cyclodextrin) was 1620 µg/mL, the solubility at 5 days (physchem [3]; pH 5.39, aqueous with cosolvent or surfactant or cyclodextrin) was 110 µg/mL and the solubility at 5 days (physchem [3]; pH 5.53, aqueous with cosolvent or surfactant or cyclodextrin) was 223 µg/mL. The solubility at 5 days (physchem [3]; pH 5.58, saline or isotonic) was 228 µg/mL, the solubility at 5 days (physchem [3]; pH 5.59, aqueous with cosolvent or surfactant or cyclodextrin) was 152 µg/mL and the solubility at 5 days (physchem [3]; pH 5.74, aqueous with cosolvent or surfactant or cyclodextrin) was 289 µg/mL. For the same molecule, the solubility at 5 days (physchem [3]; pH 5.78, aqueous with cosolvent or surfactant or cyclodextrin) was 1020 µg/mL, the solubility at 5 days (physchem [3]; pH 5.83, aqueous with cosolvent or surfactant or cyclodextrin) was 1170 µg/mL and the solubility at 5 days (physchem [3]; pH 5.97, aqueous with cosolvent or surfactant or cyclodextrin) was 272 µg/mL. It also gave a solubility at 5 days (physchem [3]; pH 6.04, aqueous with cosolvent or surfactant or cyclodextrin) of 467 µg/mL, a solubility at 5 days (physchem [3]; pH 6.17, aqueous with cosolvent or surfactant or cyclodextrin) of 120 µg/mL and a solubility at 5 days (physchem [3]; pH 6.18, aqueous with cosolvent or surfactant or cyclodextrin) of 170 µg/mL. For the same molecule, the solubility at 5 days (physchem [3]; pH 6.19, aqueous with cosolvent or surfactant or cyclodextrin) was 200 µg/mL, the solubility at 5 days (physchem [3]; pH 6.47, fassif) was 80 µg/mL and the solubility at 5 days (physchem [3]; pH 6.61, aqueous buffer) was 945 µg/mL. For the same molecule, the solubility at 5 days (physchem [3]; pH 6.63, aqueous buffer) was 979 µg/mL, the solubility at 5 days (physchem [3]; pH 6.7, aqueous with cosolvent or surfactant or cyclodextrin) was 360 µg/mL and the solubility at 5 days (physchem [3]; pH 7.42, aqueous buffer) was 7620 µg/mL. For the same molecule, the solubility at 5 days (physchem [3]; pH 7.46, aqueous buffer) was 6620 µg/mL.
